Data on 31 compounds can be found in patent US4684651A, “Alkylenedioxybenzene and acid addition salts thereof useful as hypotensives” (Mitsubishi Chemical Industries Limited, priority 1981, dated 1987).

The subject of series [1] is spontaneous hypertensive rats (SHR). Description: Hypotensive activity in spontaneous hypertensive rats (oral). The format is in vivo. As to conditions: Rattus norvegicus, relative to blood pressure before medication, read-out: Hypotensive effect (average % drop in blood pressure); for inhibition in vivo at 1 mg/kg: 1 mg/kg p.o.; for inhibition in vivo at 3 mg/kg: 3 mg/kg p.o.; for inhibition in vivo at 10 mg/kg: 10 mg/kg p.o. The method, then:
The hypotensive activities of the compounds of this invention were tested as follows: The test animals used were spontaneous hypertensive rats (SHR) of 5 to 7 month old weighing 300 to 370 g. The blood pressure and the heart rate were measured bloodily under no anesthesia by means of a catheter which has been inserted through the tail's artery under ether anesthesia, thereby determining the average blood pressure and heart rate before medication. […] The hypotensive effect was expressed as percent drop relative to the blood pressure before medication.

Series [2] is described as follows: Acute toxicity (LD50) in mice. As to conditions: mouse, in vivo, iv, Litchfield-Wilcoxon method. The method, then:
The values for acute toxicity (LD50) were calculated by the Litchfield-Wilcoxon method from the data obtained on mice.

Counter-ions that a name gives are not always drawn.

Consider `COc1ccccc1N1CCN(CC(O)c2ccc3c(c2)OCO3)CC1` (centres unmarked) [Compound 2, 5-[2-[4-(2-methoxyphenyl)-1-piperazinyl]-1-hydroxyethyl]-1,3-benzodioxole], for which, in series [1], the inhibition in vivo at 1 mg/kg is 10.2%, the inhibition in vivo at 3 mg/kg was determined as 19.2% and the inhibition in vivo at 10 mg/kg came to 36.5%.
Take `OC(CN1CCN(c2ccccc2)CC1)c1ccc2c(c1)OCCCO2` (centres unmarked) [Compound 8, 7-[2-(4-phenyl-1-piperazinyl)-1-hydroxyethyl]-1,5-benzodioxepine]: in series [1], the inhibition in vivo at 1 mg/kg turned out to be 8.6%, the inhibition in vivo at 3 mg/kg came to 14.1% and the inhibition in vivo at 10 mg/kg was found to be 25%.
With `OC(CCN1CCN(c2ccccc2Cl)CC1)c1ccc2c(c1)OCCO2` (centres unmarked) [Compound 16], in series [1], the inhibition in vivo at 1 mg/kg stood at 7.9%, the inhibition in vivo at 3 mg/kg was 11.9% and the inhibition in vivo at 10 mg/kg stood at 29.8%.
For the compound `COc1ccccc1N1CCN(CCC(O)c2ccc3c(c2)OCCO3)CC1` (centres unmarked) [Compound 17], in series [1], the inhibition in vivo at 1 mg/kg stood at 8.1%, the inhibition in vivo at 3 mg/kg was found to be 20.5% and the inhibition in vivo at 10 mg/kg is 53.1%.
Turning to `OC(CCCN1CCN(c2ccccc2)CC1)c1ccc2c(c1)OCO2` (centres unmarked) [Compound 19, 5-[4-(4-phenyl-1-piperazinyl)-1-hydroxybutyl]-1,3-benzodioxole dihydrochloride], in series [1], the inhibition in vivo at 1 mg/kg was determined as 12.8%, the inhibition in vivo at 3 mg/kg was 45.9% and the inhibition in vivo at 10 mg/kg was found to be 56.6%.
Consider `OC(CCCN1CCN(c2ccccc2)CC1)c1ccc2c(c1)OCCO2` (centres unmarked) [Compound 20, 6-[4-(4-phenyl-1-piperazinyl)-1-hydroxybutyl]-1,4-benzodioxane], for which, in series [1], the inhibition in vivo at 1 mg/kg was found to be 13.7%, the inhibition in vivo at 3 mg/kg came out at 38.4% and the inhibition in vivo at 10 mg/kg amounted to 56.1%.
By LD50 is commonly meant the dose at which mortality reaches 50%. `OC(CCCN1CCN(c2ccccc2)CC1)c1ccc2c(c1)OCCCO2` (centres unmarked) [Compound 21]: the 50% lethal dose (LD50) in series [2] turned out to be 184 mg/kg. For the same compound, in series [1], the inhibition in vivo at 1 mg/kg amounted to 19.8%, the inhibition in vivo at 3 mg/kg is 30.9% and the inhibition in vivo at 10 mg/kg amounted to 43.4%.
In series [2], `OC(CCCN1CCN(c2ccccn2)CC1)c1ccc2c(c1)OCCCO2` (centres unmarked) [Compound 25] had an LD50 of 68.5 mg/kg. Also, in series [1], the inhibition in vivo at 1 mg/kg turned out to be 30.3%, the inhibition in vivo at 3 mg/kg is 35.8% and the inhibition in vivo at 10 mg/kg came to 43.9%.
`OC(CCCCN1CCN(c2ccccc2)CC1)c1ccc2c(c1)OCO2` (centres unmarked) [Compound 26, 5-[5-(4-phenyl-1-piperazinyl)-1-hydroxypentyl]-1,3-benzodioxole]: in series [1], the inhibition in vivo at 1 mg/kg is 13%, the inhibition in vivo at 3 mg/kg stood at 21.9% and the inhibition in vivo at 10 mg/kg was 52.6%.
Taken in the same sequence, the figures for `OC(CCCCN1CCN(c2ccccc2)CC1)c1ccc2c(c1)OCCCO2` (centres unmarked) [Compound 29, 7-[5-(4-phenyl-1-piperazinyl)-1-hydroxypentyl]-1,5-benzodioxepine] were 10.8%, 27.5% and 50.7%.
As to `OC(CCCN1CCN(c2ccccn2)CC1)c1ccc2c(c1)OCO2` (centres unmarked) [Compound 31, 5-[4-[4-(2-pyridyl)-1-piperazinyl]-1-hydroxybutyl]-1,3-benzodioxole], in series [1], the inhibition in vivo at 1 mg/kg was found to be 11.5%, the inhibition in vivo at 3 mg/kg was 33.6% and the inhibition in vivo at 10 mg/kg worked out at 45.7%.
Taken in the same sequence, the figures for `COc1ccccc1N1CCN(CCCC(O)c2ccc3c(c2)OCCO3)CC1` (centres unmarked) [Compound 33, 6-[4-[4-(2-methoxyphenyl)-1-piperazinyl]-1-hydroxybutyl]-1,4-benzodioxane] were 22.6%, 41.8% and 43.2%.
In the case of `COc1ccccc1N1CCN(CCCC(O)c2ccc3c(c2)OCCCO3)CC1` (centres unmarked) [Compound 34, 7-[4-[4-(2-methoxyphenyl)-1-piperazinyl]-1-hydroxybutyl]-1,5-benzodioxepine], in series [1], the inhibition in vivo at 1 mg/kg turned out to be 24.5%, the inhibition in vivo at 3 mg/kg is 40.4% and the inhibition in vivo at 10 mg/kg stood at 48%.
Taken in the same sequence, the figures for `OC(CCCCN1CCN(c2ccccn2)CC1)c1ccc2c(c1)OCCCO2` (centres unmarked) [Compound 36] were 10.1%, 19.4% and 31%.
The like results for `COc1ccccc1N1CCN(CCCCC(O)c2ccc3c(c2)OCCCO3)CC1` (centres unmarked) [Compound 37] were, in that order, 15.6%, 30.4% and 45.7%.
For the compound `O=C(CCN1CCN(c2cccc(F)c2)CC1)c1ccc2c(c1)OCCO2` [Compound 51], in series [1], the inhibition in vivo at 1 mg/kg amounted to 5.9%, the inhibition in vivo at 3 mg/kg came to 14.5% and the inhibition in vivo at 10 mg/kg came to 49.9%.
Taken in the same sequence, the figures for `O=C(CCN1CCN(c2ccccc2)CC1)c1ccc2c(c1)OCCCO2` [Compound 56] were 6.2%, 17% and 31.5%.
On to `O=C(CCCN1CCN(c2ccccc2)CC1)c1ccc2c(c1)OCCO2` [Compound 58, 6-[4-(4-phenyl-1-piperazinyl)butyryl]-1,4-benzodioxane], for which, in series [1], the inhibition in vivo at 1 mg/kg was determined as 12.7%, the inhibition in vivo at 3 mg/kg worked out at 51.6% and the inhibition in vivo at 10 mg/kg came to 62.7%.
The like results for `O=C(CCCN1CCN(c2ccccc2)CC1)c1ccc2c(c1)OCCCO2` [Compound 59] were, in that order, 9.8%, 34.4% and 40.5%.
The compound `O=C(CCCCN1CCN(c2ccccc2)CC1)c1ccc2c(c1)OCO2` [Compound 64, 5-[5-(4-phenyl-1-piperazinyl]valeryl]-1,3-benzodioxole] yielded an LD50 in series [2] of 45.7 mg/kg. In series [1], the inhibition in vivo at 1 mg/kg is 10.1%, the inhibition in vivo at 3 mg/kg turned out to be 21.3% and the inhibition in vivo at 10 mg/kg worked out at 54.5%.
With `O=C(CCCCN1CCN(c2ccccc2)CC1)c1ccc2c(c1)OCCO2` [Compound 65, 6-[5-(4-phenyl-1-piperwzinyl)valeryl]-1,4-benzodioxane], in series [1], the inhibition in vivo at 1 mg/kg came out at 21.7%.
`O=C(CCCCN1CCN(c2ccccc2)CC1)c1ccc2c(c1)OCCCO2` [Compound 68, 7-[5-(4-phenyl-1-piperazinyl)valeryl]-1,5-benzodioxepine]: in series [1], the inhibition in vivo at 1 mg/kg is 12.5%, the inhibition in vivo at 3 mg/kg was determined as 28.6% and the inhibition in vivo at 10 mg/kg was 44%.
Consider `COc1ccccc1N1CCN(CCCCC(=O)c2ccc3c(c2)OCCCO3)CC1` [Compound 69], for which the inhibition in vivo at 1 mg/kg in series [1] was found to be 23.8%.
Regarding `O=C(CCCN1CCN(c2ccccn2)CC1)c1ccc2c(c1)OCO2` [Compound 71, 5-[4-[4-(2-pyridyl)-1-piperazinyl]butyryl]-1,3-benzodioxole], in series [1], the inhibition in vivo at 1 mg/kg came to 11.5%, the inhibition in vivo at 3 mg/kg amounted to 20.9% and the inhibition in vivo at 10 mg/kg is 43.1%.
With `O=C(CCCN1CCN(c2ccccn2)CC1)c1ccc2c(c1)OCCO2` [Compound 72, 6-[4-[4-(2-pyridyl)-1-piperazinyl]butyryl]-1,4-benzodioxane], in series [1], the inhibition in vivo at 1 mg/kg worked out at 10.1%, the inhibition in vivo at 3 mg/kg came out at 25.3% and the inhibition in vivo at 10 mg/kg worked out at 46.4%.
As to `COc1ccccc1N1CCN(CCCC(=O)c2ccc3c(c2)OCCO3)CC1` [Compound 74, 6-[4-[4-(2-methoxyphenyl)-1-piperazinyl]butyryl]-1,4-benzodioxane], the inhibition in vivo at 1 mg/kg in series [1] is 29.9%.
Turning to `COc1ccccc1N1CCN(CCCCC(=O)c2ccc3c(c2)OCCO3)CC1` [Compound 76, 6-[5-[4-(2-methoxyphenyl)-1-piperazinyl]varleryl]-1,4-benzodioxane], in series [1], the inhibition in vivo at 1 mg/kg was found to be 8.6%, the inhibition in vivo at 3 mg/kg is 23.7% and the inhibition in vivo at 10 mg/kg came out at 56.7%.
For `COc1ccccc1N1CCN(CCCCC(=O)c2ccc3c(c2)OCO3)CC1` [Compound 77, 5-[5-[4-(2-methoxyphenyl)-1-piperazinyl]valeryl]-1,3-benzodioxole], in series [1], the inhibition in vivo at 1 mg/kg stood at 12.9%, the inhibition in vivo at 3 mg/kg is 21.5% and the inhibition in vivo at 10 mg/kg amounted to 34.5%.
For `O=C(CCCCN1CCN(c2ccccn2)CC1)c1ccc2c(c1)OCCCO2` [Compound 78, 7-[5-[4-(2-pyridyl)-1-piperazinyl]valeryl]-1,5-benzodioxepine], in series [1], the inhibition in vivo at 1 mg/kg was 13.7%, the inhibition in vivo at 3 mg/kg worked out at 24.9% and the inhibition in vivo at 10 mg/kg worked out at 27.8%.
As for `COc1ccccc1N1CCN(CCCCC(=O)c2ccc3c(c2)OCC(C)(C)CO3)CC1` [Compound 79, 7-[5-[4-(2-methoxyphenyl)-1-piperazinyl]valeryl]-3,3-dimethyl-1,5-benzodioxepine], in series [1], the inhibition in vivo at 1 mg/kg worked out at 8%, the inhibition in vivo at 3 mg/kg came to 15.8% and the inhibition in vivo at 10 mg/kg amounted to 32.5%.
Consider `COc1ccccc1N1CCN(CCN(C(C)=O)c2ccc3c(c2)OCO3)CC1` [Compound 81, N-[2-[4-(2-methoxyphenyl)-1-piperazinyl]ethyl]-N-acetyl-3,4-methylenedioxyaniline hydrochloride], for which, in series [1], the inhibition in vivo at 1 mg/kg came out at 15.5% and the inhibition in vivo at 3 mg/kg came out at 21.2%.
